# Test results as given in patent US10058487B2, “Polymerizable dental material” (Muhlbauer Technology GmbH, priority 2014, dated 2018).
# Test: Determination of the water solubility by UV/visible spectroscopy
# Type: physicochemical
# Details: 23 °C, thermodynamic from solid; saturated solution in deionized water, 23±2° C.; read-out: Solubility
# Description: The water solubility was determined in deionized water by UV/visible spectroscopy. The spectra were recorded with a UV/visible spectrometer (Evolution 600, Thermo Scientific) between 200-900 nm. The measurement was carried out in quartz cells (path length 10 mm). The pure solvent deionized water was used for the background spectrum. The background spectrum was subtracted from the spectra of the coinitiators.
# Dilute solutions of the different coinitiators with known concentrations were prepared in deionized water. The absorption of the different coinitiators was measured in the absorption maximum (between 290-310 nm) and a linear relationship between the known concentrations and the measured absorptions was determined.
# Saturated aqueous solutions of the coinitiators were diluted up to the point that the measured absorption falls in the linear region found above. The concentrations of the coinitiators in the saturated aqueous solutions are determined via the Lambert-Beer law.
row,solubility [µg/mL],Compound
1,26,"CCCCC(CC)COC(=O)c1ccc(N(C)C)cc1 (centres unmarked) [EHA, 2-Ethylhexyl 4-dimethylaminobenzoate]"
2,2670,COCCNC(=O)c1ccc(N(C)C)cc1 [4-Dimethylamino-N-(2-methoxyethyl)benzamide]
3,427,CN(C)c1ccc(C(N)=O)cc1 [4-Dimethylaminobenzamide]
4,278,CN(C)c1ccc(C#N)cc1 [4-Dimethylaminobenzonitrile]
5,36,CCOC(=O)c1ccc(N(C)C)cc1 [Ethyl 4-dimethylaminobenzoate]
6,680,CCCNC(=O)c1ccc(N(C)C)cc1 [4-Dimethylamino-N-propylbenzamide]

row,Compound,solubility [µg/mL]
1,CCCCOCCOC(=O)c1ccc(N(C)C)cc1 [2-(n-Butoxy)ethyl 4-dimethylaminobenzoate],35

# Same assay, conditions: saturated solution in deionized water, 23±2° C.
row,solubility [µg/mL],Compound
1,> 766000,Polyethylene glycol monomethyl ether 4-dimethylaminobenzoate [PEGA]
